Laboratory results reported in ChEMBL document CHEMBL1201862, “PubChem BioAssay data set” (2004).
Active and inactive are the calls of the source.

Tests used:
Vero = assay: Vero E6 cell cytotoxicity, dose response, cytotoxicity control (AID 540298); type: functional; settings: Chlorocebus sabaeus
MDCK [1] = assay: MDCK cell cytotoxicity, dose response, cytotoxicity control (AID 540296); type: functional; settings: Canis lupus familiaris
MDCK [2] = assay: antiviral activity against H1N1 influenza, dose response, cell-based, strain KY136 (AID 540257); type: functional; settings: Canis lupus familiaris
[3] = biological target: T1, Endoribonuclease toxin MazF (Escherichia coli K-12, UniProt P0AE70); assay: activation of MazEF endoribonuclease cleavage – biochemical, fluorescence, single-stranded RNA substrate, uHTS hits, dose response (AID 588481); type: functional
[4] = biological target: T1, Endoribonuclease toxin MazF; assay: substrate-only fluorescence increase artefacts – biochemical, single-stranded RNase substrate, counter-screen for MazEF activator project, dose response (AID 588502); type: functional
Phospholipase D1 = Phospholipase D1 (Homo sapiens, UniProt Q13393); assay: cellular phospholipase D1 inhibition IC50 – cell-based, dose response (AID 602151); type: functional;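 also: cellular PLD1 assay in Calu-1 cells stimulated with PMA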
Phospholipase D2 = Phospholipase D2 (Homo sapiens, UniProt O14939); assay: cellular phospholipase D2 inhibition IC50 – cell-based, dose response (AID 602147); type: functional;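 also: cellular assay in HEK293 cells overexpressing GFP-tagged PLD2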
[5] = biological target: T2, Delta-type opioid receptor (Homo sapiens, UniProt P41143); assay: HTS Image-Based Screen for Antagonists of the DOR Receptor. [Related pubchem assays (depositor defined):AID1777, AID1785, AID1786, AID2133]; type: functional
Mu-type opioid receptor = Mu-type opioid receptor (Homo sapiens, UniProt P35372); assay: HTS Image-Based Screen for Agonists of the MOR Receptor. [Related pubchem assays (depositor defined):AID1777, AID1785, AID1786, AID2133]; type: functional;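 also: imaging of beta-arrestin GFP recruitment into spots after receptor activation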
[6] = system: Streptococcus sp. 'group A'; assay: Streptococcus pyogenes SK(-)GAS viability under kanamycin – luminescence, BacTiterGlo, confirmation, counter-screen for streptokinase expression inhibitor project, dose response (AID 1900); type: functional, organism-based
[7] = biological target: T2, Delta-type opioid receptor; assay: HTS Image-Based Screen for Agonists of the DOR Receptor. [Related pubchem assays (depositor defined):AID1777, AID1786, AID2133]; type: functional
[8] = biological target: T3, Kappa-type opioid receptor (Homo sapiens, UniProt P41145); type: functional
Beta-galactosidase = Beta-galactosidase (Escherichia coli, UniProt Q8VNN2); type: functional
[9] = biological target: T3, Kappa-type opioid receptor; type: functional; remark: listed apart in the source
Streptococcus = assay: GAS UMAA2166 growth inhibition – luminescence, BacTiterGlo, counter-screen for streptokinase expression inhibitor project, dose response (AID 1915); type: functional, organism-based;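 also: potency for reduction of bacterial viability or growth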
[10] = biological target: Heat shock protein HSP 90-alpha (Homo sapiens, UniProt P07900); type: functional, organism-based
HSP90 = HSP90 (Plasmodium falciparum 3D7, UniProt Q8IL32); type: functional, organism-based
[11] = rise of 2N DNA cells, HeLa – IC50, dose response (AID 1117349); type: functional, cell-based
[12] = CellTiter-Glo luminescence survival assay, SW480 colon tumor line, concentration-response curve, half-maximal inhibitory concentration (AID 1117338); type: functional
[13] = RKO cell viability reduction, dose response, CellTiter-Glo luminescence (AID 1117322); type: functional
[14] = cytotoxicity toward HCT116 cells – cell-based, CellTiter-Glo luminescence, IC50, dose response (AID 1117332); type: functional; settings: HCT-116
[15] = SNU-C1 cell viability reduction, dose response, CellTiter-Glo luminescence (AID 1117323); type: functional, cell-based
[16] = cytotoxicity toward Colo320 cells – cell-based, CellTiter-Glo luminescence, IC50, dose response (AID 1117334); type: functional; settings: COLO 320
[17] = rise of 4N DNA cells, HeLa – IC50, dose response (AID 1117351); type: functional, cell-based
[18] = cytotoxicity toward HT-29 cells – cell-based, CellTiter-Glo luminescence, IC50, dose response (AID 1117330); type: functional
[19] = Reduced DLD-1 viability, concentration-response, CellTiter-Glo luminescence (AID 1117352); type: functional
[20] = HCT116 cell viability decrease, GSK3B pretreatment – CellTiter-Glo, IC50, dose response (AID 1117339); type: functional; settings: HCT-116

T3 sequence (P41145 whole entry): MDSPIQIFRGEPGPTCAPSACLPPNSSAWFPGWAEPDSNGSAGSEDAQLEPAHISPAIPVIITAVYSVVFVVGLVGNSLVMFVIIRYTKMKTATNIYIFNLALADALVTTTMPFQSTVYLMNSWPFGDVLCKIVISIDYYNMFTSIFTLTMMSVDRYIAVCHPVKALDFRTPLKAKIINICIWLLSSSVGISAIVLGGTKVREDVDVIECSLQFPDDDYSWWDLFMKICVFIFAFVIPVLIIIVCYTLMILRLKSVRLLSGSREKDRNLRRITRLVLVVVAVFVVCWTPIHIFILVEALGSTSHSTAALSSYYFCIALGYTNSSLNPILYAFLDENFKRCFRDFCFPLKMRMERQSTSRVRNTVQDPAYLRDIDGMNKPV
T2 sequence (P41143 whole entry): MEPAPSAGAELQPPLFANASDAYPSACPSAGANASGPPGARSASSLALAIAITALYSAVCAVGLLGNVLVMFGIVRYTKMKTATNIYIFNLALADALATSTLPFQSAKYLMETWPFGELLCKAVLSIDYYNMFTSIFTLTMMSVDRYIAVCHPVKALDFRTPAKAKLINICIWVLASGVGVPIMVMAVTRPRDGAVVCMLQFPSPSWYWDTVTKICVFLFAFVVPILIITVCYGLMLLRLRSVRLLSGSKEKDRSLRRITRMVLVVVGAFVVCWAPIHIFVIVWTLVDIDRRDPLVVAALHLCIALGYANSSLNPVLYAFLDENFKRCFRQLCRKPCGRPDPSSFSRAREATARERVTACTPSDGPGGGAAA
T1 sequence (P0AE70 whole entry): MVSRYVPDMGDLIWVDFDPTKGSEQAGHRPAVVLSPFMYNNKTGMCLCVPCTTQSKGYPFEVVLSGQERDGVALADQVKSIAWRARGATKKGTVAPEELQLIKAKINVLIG
Mu-type opioid receptor, sequence (P35372 whole entry): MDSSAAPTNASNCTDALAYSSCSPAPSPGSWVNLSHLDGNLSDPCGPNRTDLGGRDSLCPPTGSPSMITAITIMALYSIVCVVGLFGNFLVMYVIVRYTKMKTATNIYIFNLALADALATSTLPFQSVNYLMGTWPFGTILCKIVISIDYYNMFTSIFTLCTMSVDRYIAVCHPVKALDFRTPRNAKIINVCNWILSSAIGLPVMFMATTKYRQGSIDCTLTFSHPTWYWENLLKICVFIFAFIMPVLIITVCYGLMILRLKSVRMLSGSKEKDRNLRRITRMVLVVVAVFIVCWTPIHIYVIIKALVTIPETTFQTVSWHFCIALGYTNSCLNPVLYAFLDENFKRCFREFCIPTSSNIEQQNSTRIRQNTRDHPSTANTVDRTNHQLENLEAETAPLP
Phospholipase D2, sequence (O14939 whole entry): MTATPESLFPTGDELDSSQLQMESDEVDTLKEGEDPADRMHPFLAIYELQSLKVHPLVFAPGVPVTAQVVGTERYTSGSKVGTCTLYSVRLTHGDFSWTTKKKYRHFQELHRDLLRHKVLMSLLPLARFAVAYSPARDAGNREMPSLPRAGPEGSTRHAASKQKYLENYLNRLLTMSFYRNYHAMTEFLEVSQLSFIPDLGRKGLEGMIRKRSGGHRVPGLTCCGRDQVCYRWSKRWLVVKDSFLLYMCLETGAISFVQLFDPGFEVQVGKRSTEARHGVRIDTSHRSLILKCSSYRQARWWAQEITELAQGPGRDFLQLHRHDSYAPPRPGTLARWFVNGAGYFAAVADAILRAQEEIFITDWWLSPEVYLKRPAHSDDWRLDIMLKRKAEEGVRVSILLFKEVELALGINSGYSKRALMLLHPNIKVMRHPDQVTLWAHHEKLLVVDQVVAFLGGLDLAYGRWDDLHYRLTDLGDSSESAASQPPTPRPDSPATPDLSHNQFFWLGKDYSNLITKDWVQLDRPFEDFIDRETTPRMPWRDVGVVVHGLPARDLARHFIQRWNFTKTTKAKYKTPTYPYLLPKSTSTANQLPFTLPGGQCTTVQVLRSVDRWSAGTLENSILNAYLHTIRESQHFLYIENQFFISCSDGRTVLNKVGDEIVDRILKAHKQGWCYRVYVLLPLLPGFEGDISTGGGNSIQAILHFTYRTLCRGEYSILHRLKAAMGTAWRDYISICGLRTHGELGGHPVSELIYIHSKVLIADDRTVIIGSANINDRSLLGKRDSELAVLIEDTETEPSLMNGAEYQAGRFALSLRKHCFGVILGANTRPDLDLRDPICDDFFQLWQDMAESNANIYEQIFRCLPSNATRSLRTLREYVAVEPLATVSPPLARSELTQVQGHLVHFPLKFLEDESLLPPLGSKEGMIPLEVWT
Phospholipase D1, sequence (Q13393 whole entry): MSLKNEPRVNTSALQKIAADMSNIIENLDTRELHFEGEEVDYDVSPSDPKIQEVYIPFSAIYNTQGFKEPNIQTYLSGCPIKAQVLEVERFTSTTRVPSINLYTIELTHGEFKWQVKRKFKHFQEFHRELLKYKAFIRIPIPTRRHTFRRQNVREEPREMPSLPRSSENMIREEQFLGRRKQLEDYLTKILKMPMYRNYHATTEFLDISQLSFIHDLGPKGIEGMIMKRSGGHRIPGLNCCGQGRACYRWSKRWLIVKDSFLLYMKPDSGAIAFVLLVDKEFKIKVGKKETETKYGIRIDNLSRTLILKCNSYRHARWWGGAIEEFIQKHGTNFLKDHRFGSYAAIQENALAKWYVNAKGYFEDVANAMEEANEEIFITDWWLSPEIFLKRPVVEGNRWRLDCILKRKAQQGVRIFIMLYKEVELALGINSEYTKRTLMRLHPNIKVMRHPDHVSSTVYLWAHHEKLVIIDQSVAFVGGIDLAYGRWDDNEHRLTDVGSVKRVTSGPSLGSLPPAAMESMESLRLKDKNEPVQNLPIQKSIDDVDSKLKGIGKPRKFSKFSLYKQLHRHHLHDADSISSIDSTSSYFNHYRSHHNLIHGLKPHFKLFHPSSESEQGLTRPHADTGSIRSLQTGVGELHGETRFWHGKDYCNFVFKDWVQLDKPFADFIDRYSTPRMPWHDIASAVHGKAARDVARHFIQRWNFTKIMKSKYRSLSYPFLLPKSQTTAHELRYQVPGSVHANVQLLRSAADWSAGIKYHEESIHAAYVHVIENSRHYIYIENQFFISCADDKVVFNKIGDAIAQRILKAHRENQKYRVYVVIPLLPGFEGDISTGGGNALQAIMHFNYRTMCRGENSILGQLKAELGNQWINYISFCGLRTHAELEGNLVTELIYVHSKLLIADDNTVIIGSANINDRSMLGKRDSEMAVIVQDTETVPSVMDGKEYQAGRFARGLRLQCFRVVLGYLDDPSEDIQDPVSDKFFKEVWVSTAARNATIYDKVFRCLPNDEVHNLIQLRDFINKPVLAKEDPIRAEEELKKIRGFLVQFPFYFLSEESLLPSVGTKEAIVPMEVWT
HSP90, sequence (Q8IL32 whole entry): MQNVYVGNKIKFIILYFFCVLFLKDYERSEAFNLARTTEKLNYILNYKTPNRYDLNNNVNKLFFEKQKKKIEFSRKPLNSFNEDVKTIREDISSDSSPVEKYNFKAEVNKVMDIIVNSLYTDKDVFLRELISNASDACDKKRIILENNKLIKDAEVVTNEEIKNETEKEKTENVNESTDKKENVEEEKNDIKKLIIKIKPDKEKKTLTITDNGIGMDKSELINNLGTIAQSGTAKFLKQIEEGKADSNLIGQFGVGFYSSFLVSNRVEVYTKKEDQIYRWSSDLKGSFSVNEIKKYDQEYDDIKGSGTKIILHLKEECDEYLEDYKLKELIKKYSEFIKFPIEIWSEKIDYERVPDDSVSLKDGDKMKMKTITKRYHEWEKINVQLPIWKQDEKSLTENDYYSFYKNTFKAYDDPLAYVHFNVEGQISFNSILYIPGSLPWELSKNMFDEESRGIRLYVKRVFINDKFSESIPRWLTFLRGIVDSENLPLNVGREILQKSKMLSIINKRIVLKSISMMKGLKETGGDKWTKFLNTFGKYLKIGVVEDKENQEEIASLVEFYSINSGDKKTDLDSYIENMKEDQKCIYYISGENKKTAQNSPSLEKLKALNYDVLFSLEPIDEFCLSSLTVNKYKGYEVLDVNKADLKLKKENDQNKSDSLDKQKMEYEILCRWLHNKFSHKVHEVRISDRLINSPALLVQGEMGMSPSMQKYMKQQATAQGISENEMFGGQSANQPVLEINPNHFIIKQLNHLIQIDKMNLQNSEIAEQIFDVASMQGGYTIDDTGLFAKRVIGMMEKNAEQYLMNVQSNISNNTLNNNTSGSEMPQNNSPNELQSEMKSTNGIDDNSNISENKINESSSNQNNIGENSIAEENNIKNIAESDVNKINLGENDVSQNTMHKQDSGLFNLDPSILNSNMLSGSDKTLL

SMILES: Cc1ccccc1NC(=O)/C(=C/c1ccco1)c1ccccc1
- CC50 (Vero): > 40 µM (active)
- CC50 (MDCK [1]): > 40 µM (active)
- IC50 (MDCK [2]): 15.4 µM (active)

SMILES: Cc1sc(NC(=O)CSc2nnc(N)[nH]2)c(C#N)c1C
- EC50 [3]: > 99 µM (inactive)
- EC50 [4]: > 99 µM (inactive)

SMILES: O=C(NCCN1CCC(n2c(=O)[nH]c3cc(I)ccc32)CC1)c1ccc(Cl)cc1
- IC50 (Phospholipase D1): 0.005 µM (active)
- IC50 (Phospholipase D2): 0.345 µM (active)

SMILES: Oc1c(Cl)cc(Cl)c2cccnc12 [CHLOROXINE]
- IC50 [5]: > 32 µM (inactive)
- EC50 (Mu-type opioid receptor): > 32 µM (inactive)
- EC50 [6]: 0.258 µM (active)
- EC50 [7]: > 32 µM (inactive)
- IC50 [8]: 4.56 µM (active)
- EC50 (Beta-galactosidase): > 31.5 µM (inactive)
- IC50 [9]: > 32 µM
- EC50 (Streptococcus): 3.31 µM (active)
- AC50 [10]: 1.05 µM (active)
- AC50 (HSP90): 0.511 µM (active)
- IC50 [11]: > 10 µM (inactive)
- IC50 [12]: 0.0438 µM (active)
- IC50 [13]: 0.0627 µM (active)
- IC50 [14]: 0.0475 µM (active)
- IC50 [15]: 0.495 µM (active)
- IC50 [16]: 0.0493 µM (active)
- IC50 [17]: > 10 µM (inactive)
- IC50 [18]: > 20 µM (inactive)
- IC50 [19]: 0.409 µM (active)
- IC50 [20]: 0.0393 µM (active)
